Data published in patent US20220324800A1 (priority 2021, published 2022).

Biological target: 3CLpro (Severe acute respiratory syndrome coronavirus 2, UniProt P0DTD1)
Assay: biochemical
Set-up: species or system SARS-CoV-2

Compound: CC(C)C[C@H](NC(=O)c1cc(Cl)c(Cl)s1)C(=O)CN(C[C@@H]1CCNC1=O)C(=O)CCl [Example 11, 4,5-Dichloro-N—((S)-1-(2-chloro-N—(((S)-2-oxopyrrolidin-3-yl)methyl)acetamido)-5-methyl-2-oxohexan-3-yl)thiophene-2-carboxamide]
- IC50: < 2 µM

Compound: CC(C)C[C@H](NC(=O)c1cc2c(F)cccc2o1)C(=O)CN(C[C@@H]1CCNC1=O)C(=O)CCl [Example 15, N—((S)-1-(2-Chloro-N—(((S)-2-oxopyrrolidin-3-yl)methyl)acetamido)-5-methyl-2-oxohexan-3-yl)-4-fluorobenzofuran-2-carboxamide]
- IC50: < 2 µM

Compound: C=CC(=O)N(CC(=O)[C@H](CC(C)C)NC(=O)c1cc2c(OC)cccc2[nH]1)C[C@@H]1CCNC1=O [Example 4, 4-Methoxy-N—((S)-5-methyl-2-oxo-1-(N—(((S)-2-oxopyrrolidin-3-yl)methyl)acrylamido)hexan-3-yl)-1H-indole-2-carboxamide]
- IC50: > 20 µM

Compound: COc1cccc2[nH]c(C(=O)N[C@@H](CC(C)C)C(=O)CN(C[C@@H]3CCNC3=O)C(=O)SCc3ccccc3)cc12 [Example 18, S-Benzyl ((S)-3-(4-methoxy-1H-indole-2-carboxamido)-5-methyl-2-oxohexyl)(((S)-2-oxopyrrolidin-3-yl)methyl)carbamothioate]
- IC50: > 20 µM

Compound: CC(C)C[C@H](NC(=O)OCc1ccccc1)C(=O)CN(C[C@@H]1CCNC1=O)C(=O)CCl [Example 20, Benzyl ((S)-1-(2-chloro-N—(((S)-2-oxopyrrolidin-3-yl)methyl)acetamido)-5-methyl-2-oxohexan-3-yl)carbamate]
- IC50: < 2 µM

Compound: CC(C)C[C@H](NC(=O)c1cc2ccccc2o1)C(=O)CN(C[C@@H]1CCNC1=O)C(=O)CCl [Example 14, N—((S)-1-(2-Chloro-N—(((S)-2-oxopyrrolidin-3-yl)methyl)acetamido)-5-methyl-2-oxohexan-3-yl)benzofuran-2-carboxamide]
- IC50: < 2 µM

Compound: CC(C)C[C@H](NC(=O)c1cccs1)C(=O)CN(C[C@@H]1CCNC1=O)C(=O)CCl [Example 13, N—((S)-1-(2-Chloro-N—(((S)-2-oxopyrrolidin-3-yl)methyl)acetamido)-5-methyl-2-oxohexan-3-yl)thiophene-2-carboxamide]
- IC50: < 2 µM

Compound: C=CC(=O)N(CC(=O)[C@H](CC(C)C)NC(=O)OC(C)(C)C)C[C@@H]1CCNC1=O [Example 3, Tert-butyl ((S)-5-methyl-2-oxo-1-(N—(((S)-2-oxopyrrolidin-3-yl)methyl)acrylamido)hexan-3-yl)carbamate]
- IC50: > 20 µM

Compound: CC(=O)OCC(=O)N(CC(=O)[C@H](CC(C)C)NC(=O)OC(C)(C)C)C[C@@H]1CCNC1=O [Example 17, 2-(((S)-3-((Tert-butoxycarbonyl)amino)-5-methyl-2-oxohexyl)(((S)-2-oxopyrrolidin-3-yl)methyl)amino)-2-oxoethyl acetate]
- IC50: > 20 µM

Compound: CC(C)C[C@H](NC(=O)OC(C)(C)C)C(=O)CN(C[C@@H]1CCNC1=O)C(=O)CCl [Example 1, Tert-butyl ((S)-1-(2-chloro-N—(((S)-2-oxopyrrolidin-3-yl)methyl)acetamido)-5-methyl-2-oxohexan-3-yl)carbamate]
- IC50: < 2 µM

Compound: CC(C)C[C@@H](NC(=O)OCc1ccccc1)C(=O)CN(C[C@@H]1CCNC1=O)C(=O)CCl [Example 21, Benzyl ((R)-1-(2-chloro-N—(((S)-2-oxopyrrolidin-3-yl)methyl)acetamido)-5-methyl-2-oxohexan-3-yl)carbamate]
- IC50: 2 to 20 µM

Compound: CC(C)C[C@H](NC(=O)c1cc2c(F)cccc2s1)C(=O)CN(C[C@@H]1CCNC1=O)C(=O)CCl [Example 12, N—((S)-1-(2-Chloro-N—(((S)-2-oxopyrrolidin-3-yl)methyl)acetamido)-5-methyl-2-oxohexan-3-yl)-4-fluorobenzo[b]thiophene-2-carboxamide]
- IC50: < 2 µM

Compound: COc1cccc2[nH]c(C(=O)N[C@@H](CC(C)C)C(=O)CN(C[C@@H]3CCNC3=O)C(=O)CF)cc12 [Example 8, N—((S)-1-(2-Fluoro-N—(((S)-2-oxopyrrolidin-3-yl)methyl)acetamido)-5-methyl-2-oxohexan-3-yl)-4-methoxy-1H-indole-2-carboxamide]
- IC50: > 20 µM

Compound: COc1cccc2[nH]c(C(=O)N[C@@H](CC(C)C)C(=O)CN(C[C@@H]3CCNC3=O)C(=O)CCl)cc12 [Example 2, N—((S)-1-(2-Chloro-N—(((S)-2-oxopyrrolidin-3-yl)methyl)acetamido)-5-methyl-2-oxohexan-3-yl)-4-methoxy-1H-indole-2-carboxamide]
- IC50: < 2 µM

Compound: CC(C)C[C@H](NC(=O)OC(C)(C)C)C(=O)CN(C[C@@H]1CCNC1=O)C(=O)SCc1ccccc1 [Example 16, Tert-butyl ((S)-1-(((benzylthio)carbonyl)(((S)-2-oxopyrrolidin-3-yl)methyl)amino)-5-methyl-2-oxohexan-3-yl)carbamate]
- IC50: > 20 µM

Compound: COc1cccc2[nH]c(C(=O)N[C@@H](CC(C)C)C(=O)CN(C[C@@H]3CCNC3=O)S(=O)(=O)CCl)cc12 [Example 10, N—((S)-1-((1-Chloro-N—(((S)-2-oxopyrrolidin-3-yl)methyl)methyl)sulfonamido)-5-methyl-2-oxohexan-3-yl)-4-methoxy-1H-indole-2-carboxamide]
- IC50: > 20 µM

Compound: C#CC(=O)N(CC(=O)[C@H](CC(C)C)NC(=O)c1cc2c(OC)cccc2[nH]1)C[C@@H]1CCNC1=O [Example 6, 4-Methoxy-N—((S)-5-methyl-2-oxo-1-(N—(((S)-2-oxopyrrolidin-3-yl)methyl)propiolamido)hexan-3-yl)-1H-indole-2-carboxamide]
- IC50: 2 to 20 µM
